From patent publication US6525001B1, “Substituted pyrimidine and pyridine herbicides” (Mid-American Commercialization Corporation, priority 1997, dated 2003)

Key:
Type in all cases: in vivo
Design in all cases: key: 0 is no effect; 10 is complete control
[1] = test system: rice (Oryza sativa); experiment: Test B flood test
Summary of the method: (§1)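 Read-out is a visual response score from 0 (no effect) to 10 (complete control), assigned by comparison with untreated controls. Treatment was applied at the 2-leaf stage, and plants stayed in the greenhouse for twelve to sixteen days before scoring.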

[2] = test system: bamyardgrass (Echinochloa crus-galli); experiment: Test B flood test
Summary of the method: as §1

[3] = test system: duck salad (Heteranthera limosa); experiment: Test B flood test
Summary of the method: as §1

[4] = test system: smallflower flatsedge (Cyperus difformis); experiment: Test B flood test
Summary of the method: as §1

[5] = test system: corn (Zea mays); experiment: Test B pre-/postemergence
Summary of the method: (§2)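 Compounds in a surfactant-containing, non-phytotoxic solvent blend are applied to freshly planted seed (preemergence) and, concurrently, to seedlings of 2 to 18 cm at 1–4 leaves (postemergence). Plants stay in the greenhouse twelve to sixteen days and are then scored visually from 0 (no effect) to 10 (complete control).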

[6] = test system: giant foxtail (Setaria faberii); experiment: Test B pre-/postemergence
Summary of the method: as §2

[7] = test system: cocklebur (Xanthium strumarium); experiment: Test B pre-/postemergence
Summary of the method: as §2

[8] = test system: momingglory (Ipomoea hederacea); experiment: Test B pre-/postemergence
Summary of the method: as §2

[9] = test system: broadleaf signalgrass (Brachiaria decumbens); experiment: Test B pre-/postemergence
Summary of the method: as §2

[10] = test system: crabgrass (Digitaria sanguinalis); experiment: Test B pre-/postemergence
Summary of the method: as §2

[11] = test system: sugar beet (Beta vulgaris); experiment: Test B pre-/postemergence
Summary of the method: as §2

[12] = test system: soybean (Glycine max); experiment: Test B pre-/postemergence
Summary of the method: as §2

[13] = test system: bedstraw (Galium aparine); experiment: Test B pre-/postemergence
Summary of the method: as §2

[14] = test system: velvetleaf (Abutilon theophrasti); experiment: Test B pre-/postemergence
Summary of the method: as §2

[15] = test system: blackgrass (Alopecurus myosuroides); experiment: Test B pre-/postemergence
Summary of the method: as §2

[16] = test system: rape (Brassica napus); experiment: Test B pre-/postemergence
Summary of the method: as §2

[17] = test system: wheat (Triticum aestivum); experiment: Test B pre-/postemergence
Summary of the method: as §2

[18] = test system: wild oat (Avena fatua); experiment: Test B pre-/postemergence
Summary of the method: as §2

[19] = test system: purple nutsedge (Cyperus rotundus); experiment: Test B pre-/postemergence
Summary of the method: as §2

[20] = test system: pigweed (Amaranthus retroflexus); experiment: Test B pre-/postemergence
Summary of the method: as §2

[21] = Rate 62 g/ha, Postemergence (flood test)
[22] = Rate 125 g/ha, Postemergence section (flood test species)
[23] = Rate 250 g/ha, Postemergence (flood test species)
[24] = Preemergence, Rate 62 g/ha, scale of 0 to 10

COc1cnc(-n2ccc(C(F)(F)F)n2)nc1C(=O)c1cccc(C(F)(F)F)c1 [Compound 60]
Rice plant response rating [1, 21]: 0 | Rice plant response rating [1, 22]: 0 | Plant response rating, Rice [1, 23]: 1 | Barnyardgrass plant response rating [2, 21]: 1 | Barnyardgrass plant response rating [2, 22]: 1 | Plant response rating, Barnyardgrass [2, 23]: 2 | Ducksalad plant response rating [3, 21]: 1 | Ducksalad plant response rating [3, 22]: 2 | Plant response rating, Ducksalad [3, 23]: 2 | S. Flatsedge plant response rating [4, 21]: 4 | S. Flatsedge plant response rating [4, 22]: 5 | Plant response rating, S. Flatsedge [4, 23]: 6 | Plant response rating, Corn [5, 24]: 0 | Corn plant response rating ([5]; Rate 62 g/ha, Postemergence): 2 | Corn plant response rating ([5]; Rate 125 g/ha, Postemergence): 2 | Plant response rating, Corn ([5]; Rate 125 g/ha, Preemergence): 0 | Plant response rating, Corn ([5]; Rate 250 g/ha, Postemergence): 3 | Plant response rating, Corn ([5]; Rate 250 g/ha, Preemergence): 0 | Plant response rating, Giant foxtail [6, 24]: 2 | Giant foxtail plant response rating ([6]; Rate 62 g/ha, Postemergence): 2 | Giant foxtail plant response rating ([6]; Rate 125 g/ha, Postemergence): 2 | Plant response rating, Giant foxtail ([6]; Rate 125 g/ha, Preemergence): 2 | Plant response rating, Giant foxtail ([6]; Rate 250 g/ha, Postemergence): 2 | Plant response rating, Giant foxtail ([6]; Rate 250 g/ha, Preemergence): 5 | Plant response rating, Cocklebur [7, 24]: 0 | Cocklebur plant response rating ([7]; Rate 62 g/ha, Postemergence): 3 | Cocklebur plant response rating ([7]; Rate 125 g/ha, Postemergence): 3 | Plant response rating, Cocklebur ([7]; Rate 125 g/ha, Preemergence): 0 | Plant response rating, Cocklebur ([7]; Rate 250 g/ha, Postemergence): 4 | Plant response rating, Cocklebur ([7]; Rate 250 g/ha, Preemergence): 0 | Plant response rating, Morningglory [8, 24]: 1 | Morningglory plant response rating ([8]; Rate 62 g/ha, Postemergence): 2 | Morningglory plant response rating ([8]; Rate 125 g/ha, Postemergence): 4 | Plant response rating, Morningglory ([8]; Rate 125 g/ha, Preemergence): 2 | Plant response rating, Morningglory ([8]; Rate 250 g/ha, Postemergence): 9 | Plant response rating, Morningglory ([8]; Rate 250 g/ha, Preemergence): 5 | B. signalgrass plant response rating ([9]; Rate 62 g/ha, Postemergence): 2 | B. signalgrass plant response rating ([9]; Rate 62 g/ha, Preemergence): 2 | B. signalgrass plant response rating ([9]; Rate 125 g/ha, Postemergence): 2 | Plant response rating, B. signalgrass ([9]; Rate 125 g/ha, Preemergence): 3 | Plant response rating, B. signalgrass ([9]; Rate 250 g/ha, Postemergence): 3 | Plant response rating, B. signalgrass ([9]; Rate 250 g/ha, Preemergence): 3 | Plant response rating, Crabgrass [10, 24]: 0 | Crabgrass plant response rating ([10]; Rate 62 g/ha, Postemergence): 2 | Crabgrass plant response rating ([10]; Rate 125 g/ha, Postemergence): 3 | Plant response rating, Crabgrass ([10]; Rate 125 g/ha, Preemergence): 2 | Plant response rating, Crabgrass ([10]; Rate 250 g/ha, Postemergence): 4 | Plant response rating, Crabgrass ([10]; Rate 250 g/ha, Preemergence): 6 | Plant response rating, Sugarbeets [11, 24]: 6 | Sugarbeets plant response rating ([11]; Rate 62 g/ha, Postemergence): 8 | Sugarbeets plant response rating ([11]; Rate 125 g/ha, Postemergence): 8 | Plant response rating, Sugarbeets ([11]; Rate 125 g/ha, Preemergence): 8 | Plant response rating, Sugarbeets ([11]; Rate 250 g/ha, Postemergence): 9 | Plant response rating, Sugarbeets ([11]; Rate 250 g/ha, Preemergence): 9 | Plant response rating, Soybean [12, 24]: 0 | Soybean plant response rating ([12]; Rate 62 g/ha, Postemergence): 2 | Soybean plant response rating ([12]; Rate 125 g/ha, Postemergence): 2 | Plant response rating, Soybean ([12]; Rate 125 g/ha, Preemergence): 0 | Plant response rating, Soybean ([12]; Rate 250 g/ha, Postemergence): 2 | Plant response rating, Soybean ([12]; Rate 250 g/ha, Preemergence): 0 | Plant response rating, Bedstraw [13, 24]: 0 | Bedstraw plant response rating ([13]; Rate 62 g/ha, Postemergence): 2 | Bedstraw plant response rating ([13]; Rate 125 g/ha, Postemergence): 3 | Plant response rating, Bedstraw ([13]; Rate 125 g/ha, Preemergence): 0 | Plant response rating, Bedstraw ([13]; Rate 250 g/ha, Postemergence): 3 | Plant response rating, Bedstraw ([13]; Rate 250 g/ha, Preemergence): 1 | Plant response rating, Velvetleaf [14, 24]: 1 | Velvetleaf plant response rating ([14]; Rate 62 g/ha, Postemergence): 2 | Velvetleaf plant response rating ([14]; Rate 125 g/ha, Postemergence): 2 | Plant response rating, Velvetleaf ([14]; Rate 125 g/ha, Preemergence): 1 | Plant response rating, Velvetleaf ([14]; Rate 250 g/ha, Postemergence): 2 | Plant response rating, Velvetleaf ([14]; Rate 250 g/ha, Preemergence): 1 | Plant response rating, Blackgrass [15, 24]: 1 | Blackgrass plant response rating ([15]; Rate 62 g/ha, Postemergence): 1 | Blackgrass plant response rating ([15]; Rate 125 g/ha, Postemergence): 1 | Plant response rating, Blackgrass ([15]; Rate 125 g/ha, Preemergence): 1 | Plant response rating, Blackgrass ([15]; Rate 250 g/ha, Postemergence): 2 | Plant response rating, Blackgrass ([15]; Rate 250 g/ha, Preemergence): 2 | Plant response rating, Rape [16, 24]: 0 | Rape plant response rating ([16]; Rate 62 g/ha, Postemergence): 3 | Rape plant response rating ([16]; Rate 125 g/ha, Postemergence): 3 | Plant response rating, Rape ([16]; Rate 125 g/ha, Preemergence): 0 | Plant response rating, Rape ([16]; Rate 250 g/ha, Postemergence): 4 | Plant response rating, Rape ([16]; Rate 250 g/ha, Preemergence): 1 | Plant response rating, Wheat [17, 24]: 0 | Wheat plant response rating ([17]; Rate 62 g/ha, Postemergence): 2 | Wheat plant response rating ([17]; Rate 125 g/ha, Postemergence): 3 | Plant response rating, Wheat ([17]; Rate 125 g/ha, Preemergence): 0 | Plant response rating, Wheat ([17]; Rate 250 g/ha, Postemergence): 3 | Plant response rating, Wheat ([17]; Rate 250 g/ha, Preemergence): 0 | Plant response rating, Wild oats [18, 24]: 0 | Wild oats plant response rating ([18]; Rate 62 g/ha, Postemergence): 2 | Wild oats plant response rating ([18]; Rate 125 g/ha, Postemergence): 2 | Plant response rating, Wild oats ([18]; Rate 125 g/ha, Preemergence): 0 | Plant response rating, Wild oats ([18]; Rate 250 g/ha, Postemergence): 2 | Plant response rating, Wild oats ([18]; Rate 250 g/ha, Preemergence): 0 | Plant response rating, Nutsedge [19, 24]: 0 | Nutsedge plant response rating ([19]; Rate 62 g/ha, Postemergence): 0 | Nutsedge plant response rating ([19]; Rate 125 g/ha, Postemergence): 0 | Plant response rating, Nutsedge ([19]; Rate 125 g/ha, Preemergence): 0 | Plant response rating, Nutsedge ([19]; Rate 250 g/ha, Postemergence): 0 | Plant response rating, Redroot pigweed [20, 24]: 6 | Redroot pigweed plant response rating ([20]; Rate 62 g/ha, Postemergence): 5 | Redroot pigweed plant response rating ([20]; Rate 125 g/ha, Postemergence): 7 | Plant response rating, Redroot pigweed ([20]; Rate 125 g/ha, Preemergence): 9 | Plant response rating, Redroot pigweed ([20]; Rate 250 g/ha, Postemergence): 7 | Plant response rating, Redroot pigweed ([20]; Rate 250 g/ha, Preemergence): 10
